We go through one compound from patent US20080312171A1, “Tetracycline-Dependent Regulation of Rna Interference” (CENTRE NATIONAL DE LA RECHERCHE SCIENTIFIQUE, priority 2005, published 2008).

Type in all cases: cell-based
Assay [1] has as its system GFP expression in HEK 293T GFP cells. The experiment in a line: FACS analysis of GFP-positive cells, vector-transduced HEK 293T GFP cells with and without Dox. The settings on record: various amounts of vector, Dox 6 μg/ml, 5 days. (In general: Flow cytometry measures light scatter and fluorescence of single cells or particles in a stream.)
Another assay has as its system human p53. The experiment in a line: Western blot analysis of p53 silencing by Dox-regulated RNAi in HEK 293T, MCF-7 and A549 cells. The settings on record: transduced HEK 293T, Dox 6 μg/ml, 5-7 days, densitometric analysis. On the procedure: Cells (1×10^5) were incubated overnight with indicated quantities of vector, expressed as ng of protein p24, and then cultivated in the absence and in the presence of 6 μg/ml Dox. After a 5 day (MCF-7 and A549 cells) and a 7 day cultivation (HEK 293T cells), protein was extracted from the cells and analyzed by immunoblotting.
Inventors constructed a second vector, which contained a shRNA encoding sequence designed to silence expression of human p53 as described (1). […] The expression of p53 was not reduced when non-transduced cells were incubated in the presence of Dox (6 μg/ml).
Cell extracts were prepared in lysis buffer [25 mM Tris-HCl (pH 7.5), 1% Triton X-100, 0.5% sodium deoxycholate, 5 mM EDTA, 150 mM NaCl] containing a cocktail of protease inhibitors (Roche, Meylan, France). The protein samples (30 μg) were separated on SDS-9% polyacrylamide gels and then transferred to Protan nitrocellulose membranes (Schleicher and Shuell, Dassel, Germany) in an electroblotting apparatus, using standard procedures (26). Immunodetection was performed as described in Tejedor-Real et al. (27), using a monoclonal anti-p53 antibody (BD Biosciences, Erembodegem, Belgium), a monoclonal anti-actin antibody (Chemicon, Hampshire, UK) and an anti-mouse Ig-horseradish peroxidase (HRP) conjugate (Amersham Biosciences).
A general note: Immunoblotting shows a protein as a band on a membrane.

Assay [2] relates to GFP expression in HEK 293T GFP cell clones. The experiment in a line: GFP fluorescence (FACS, microscopy) in cell clones from transduced HEK 293T GFP cells, Dox-controlled RNAi.

Each structure is given as a SMILES string.

Regarding `C[C@H]1c2cccc(O)c2C(=O)C2=C(O)[C@]3(O)C(=O)C(C(N)=O)=C(O)[C@@H](N(C)C)[C@@H]3[C@@H](O)[C@@H]21` [Dox, Doxycycline], the “reduction of the number of GFP-expressing cells” value in assay [1] is given as “up to 60%”. The “inhibition of the expression of p53” value with human p53 was “up to 90%”. Further, the “MFI (+Dox)” value in assay [2] (clone C1) came to 4; in assay [2] (clone C9), 32; in assay [2] (clone D8), 9; in assay [2] (clone H6) it was 77. For the same compound, the Regulation factor came out at 52 in assay [2] (clone C1, MFI (−Dox) over MFI (+Dox)); 9.7 in assay [2] (clone C9, MFI (−Dox) over MFI (+Dox)); 24 in assay [2] (clone D8, MFI (−Dox) over MFI (+Dox)); 4.4 in assay [2] (clone H6, MFI (−Dox) over MFI (+Dox)). In addition, in assay [2] (clone C9, 6 μg/ml Dox, after 5-6 days, FACS), the “reduction of GFP fluorescence” value is given as 90%. The “concentration required to induce a 90% suppression of GFP” value in assay [2] (clone C9, within 5 days) was “about 6 μg/ml”.
